Laboratory results: US5317019A, “Inhibition of interleukin-1 and tumor necrosis factor production by monocytes and/or macrophages” (priority 1991, dated 1994)

Legend:
[1] = test system: IL-1 production by human monocytes; assay: In vitro IL-1 production by LPS-stimulated human monocytes; format: cell-based; settings: Homo sapiens, Monocyte; Table 1; LPS 50 ng/ml, 24 h; read-out: IC50, effect on LPS-stimulated IL-1 production by human monocytes
Procedure: Bacterial lipopolysaccharide (LPS) was used to induce IL-1 production by human peripheral blood monocytes. IL-1 activity was measured by its ability to stimulate a Interleukin 2 (IL-2) producing cell line […] to secrete IL-2, in concert with A23187 ionophore, according to the method of Simon et al., J. Immunol. […] The cells were allowed to adhere for 2 hours, after which time non-adherent cells were removed by gentle washing. […] At the end of the incubation period, culture supernatants were removed and clarified of cells and all debris.

[2] = test system: arachidonic acid-induced mouse ear swelling; assay: Arachidonic acid-induced mouse ear swelling (p.o.); format: in vivo; settings: 50 mg/kg p.o.; *** p less than 0.001
Procedure: ^a Mouse ear edema was measured as described in Griswold et al.,
Inflammation, II(2), 189-199 (1987), the disclosure of which is hereby
incorporated by reference.

[3] = test system: TNF production by human monocytes; assay: In vitro TNF production by LPS-stimulated human monocytes (ELISA); format: cell-based; settings: Homo sapiens, Monocyte; Table B; LPS 50 ng/ml, 24 h; read-out: IC50, LPS induced TNF human monocyte data
Procedure: The effects of the compounds enumerated above on the in vitro production of TNF by human monocytes was examined using the following protocol.
Bacterial lipopolysaccharide (LPS) was used to induce TNF production by human peripheral blood monocytes. TNF activity was measured by a modification of Winston et al., ELISA, described below. […] The cells were allowed to adhere for 2 hours, after which time non-adherent cells were removed by gentle washing. […] At the end of the incubation period, culture supernatants were removed and clarified of cells and all debris. Culture supernatants were immediately assayed for TNF levels in the manner described below.
The Elisa employes a murine monoclonal anti-human TNF antibody, described below, as the capture antibody and a polyclonal rabbit anti-human TNF, described below, as the second antibody. […] TNF levels in samples were calculated from a standard curve genereated with recombinant human TNF produced in E. Coli (obtained from SmithKIine Beecham Pharmaceuticals, King of Prussia, Pa., USA).
Polyclonal rabbit anti-human TNF antibodies were prepared by repeated immunization of New Zeland White (NZW) rabbits with recombinant human TNF emulsified in complete Freund's adjuvant (DEFCO, Ill., USA).

[4] = test system: serum TNF in P. acnes-sensitized mice; assay: P. acnes/LPS endotoxin shock model, serum TNF; format: in vivo, mouse (C57BL/6); settings: P. acnes/LPS treated mice, oral dosage, FIG. 1
Source text: (§1) Two models of endotoxin shock have been utilized to determine in vivo TNF activity and are described below. The actual protocol used in the models is described in Utility Model Examples A and B set out below, i.e. P. acnes model and LPS-GAL model.
Endotoxin Shock in P. acnes-Sensitized Mice
(§2) This model is a modification of the previously described protocol for the in vivo induction of TNF as described in Haranaka et al., Cancer Immunol Immunother. 18:81-90, (1984). Treatment with Proprionibacterium Acnes (P. acnes) (1 mg/animal i.p.) renders mice susceptible to the lethal effects of LPS injected 10 days later.
P. acnes was purchased from Burroughs Wellcome (Triangle Park, N.C., USA), and […] of the heat-killed bacteria was administered in 0.5 ml pyrogen-free saline by intraperitoneal (i.p.) injection to male C57BL/6 mice, obtained from Charles River Laboratories (Stone Ridge, N.Y., USA) of 6-12 weeks of age. […] The survival of animals was monitored for 1 week.
Plasma levels of TNF were measured using a modification of the basic sandwich ELISA method described in Winston et al., Current Protocols in Molecular Biology, Pg. […] TNF levels in rat samples were calculated from a standard curve generated with recombinant murine TNF (Genzyme, Boston, Mass., USA). TNF levels determined by ELISA correlated with levels detected by the L929 bioassay of Ruff et. al., J. Immunol. […]

[5] = test system: endotoxin shock in D-gal-sensitized mice; assay: LPS-GAL endotoxin shock model (D-gal-sensitized mice); format: in vivo, mouse (C57BL/6)
Source text: as §1
Endotoxin Shock in D-gal-Sensitized Mice
The protocol used to test the compound of the method of the subject invention was essentially as has been described in Galanos et al., Proc. Nat'l Acad. Sci USA, 76:5939-43 (1979) whose disclosure is herein incorporated by reference. Briefly, D-gal […] sensitizes various strains of mice to the lethal effects of endotoxin. The administration of D-gal (300-500 mg/kg) intravenously (i.v.) sensitizes the mice to doses of Lipopolysaccharide(LPS ) as low as 0.1 mg. […]
Plasma levels of TNF were measured using a modification of the basic sandwich ELISA method described in Winston et al., Current Protocols in Molecular Biology, Pg. […] TNF levels in rat samples were calculated from a standard curve generated with recombinant murine TNF (Genzyme, Boston, Mass., USA). TNF levels determined by ELISA correlated with levels detected by the L929 bioassay of Ruff et. al., J. Immunol. […] The ELISA detected levels of TNF down to 25 pg/ml.

[6] = test system: endotoxin shock in mice; assay: In vivo endotoxin shock models (P. acnes and/or LPS-GAL); design: species or system mouse (C57BL/6); settings: one or both in vivo models
Source text: as §1
The protocol used to test the compound of the method of the subject invention was essentially as has been described in Galanos et al., Proc. Nat'l Acad. Sci USA, 76:5939-43 (1979) whose disclosure is herein incorporated by reference. Briefly, D-gal […] sensitizes various strains of mice to the lethal effects of endotoxin. The administration of D-gal (300-500 mg/kg) intravenously (i.v.) sensitizes the mice to doses of Lipopolysaccharide(LPS ) as low as 0.1 mg. Briefly, male C57BL/6 mice, obtained from Charles River Laboratories (Stone Ridge, N.Y., USA) of 6-12 weeks of age were injected i.v. with 0.1 mg of LPS from Salmonella typhosa (Difco Laboratories, Detroit, Mich., USA) admixed with D(+)-gal (Sigma; 500 mg/kg) in 0.20-0.25 ml pyrogen-free saline. Compounds to be tested were administered at various times prior to or following the i.v. injection of LPS/D-gal. In this model, the control animals usually die 5-6 hr. following the injection of LPS, although on occasion deaths are seen between 24 and 48 hr.
as §2
P. acnes was purchased from Burroughs Wellcome (Triangle Park, N.C., USA), and […] of the heat-killed bacteria was administered in 0.5 ml pyrogen-free saline by intraperitoneal (i.p.) injection to male C57BL/6 mice, obtained from Charles River Laboratories (Stone Ridge, N.Y., USA) of 6-12 weeks of age. Ten days later, the mice were injected i.v. with 1 mg LPS in 0.25 ml saline. Compounds to be tested were administered at various times prior to or following the injection of LPS. The survival of animals was monitored for 1 week.
Plasma levels of TNF were measured using a modification of the basic sandwich ELISA method described in Winston et al., Current Protocols in Molecular Biology, Pg. 11.2.1, Ausubel et al., Ed. (1987) John Wiley and Sons, New York, USA. The Elisa employed a hampster monoclonal anti-mouse TNF (Genzyme, Boston, Mass., USA ) as the capture antibody and a polyclonal rabbit anti-murine TNF (Genzyme, Boston, Mass., USA ) as the detecting antibody. TNF levels in rat samples were calculated from a standard curve generated with recombinant murine TNF (Genzyme, Boston, Mass., USA). TNF levels determined by ELISA correlated with levels detected by the L929 bioassay of Ruff et. al., J. Immunol. 125:1671-1677 (1980), with 1 Unit of activity in the bioassay corresponding to 70 picograms (pg) of TNF in the ELISA. The ELISA detected levels of TNF down to 25 pg/ml.

[7] = test system: IL-1 production by human monocytes; settings: literature (Lee et al.); in words; cited from earlier work
[8] = test system: 5-lipoxygenase; settings: literature (Lee et al.); cited from earlier work
[9] = test system: cyclooxygenase; settings: literature (Lee et al.); cited from earlier work
[10] = test system: arachidonic acid-induced inflammation; settings: literature (Griswold et al.); cited from earlier work

SMILES	IC50 [1] [µM]	Percent inhibition of arachidonic acid-induced mouse ear swelling [2] [%]	IC50 [3] [µM]	Inhibition of in vivo TNF levels / in vivo activity [6]	Protection from lethal effects of endotoxin shock [6]	further results
C[S+]([O-])c1ccc(-c2nc3n(c2-c2ccncc2)CCC3)cc1 (stereo not drawn) [Compound 2, 2-(4-methylsulfinylphenyl)-3-(4-pyridyl)-6,7-dihydro-[5H]-pyrrolo-[1,2-a]-imidazole]	> 10	44	> 10	in vivo activity	protection from the lethal effects of endotoxin shock	Reduction in serum / in vivo TNF levels [4]: decreased levels of in vivo TNF relative to increased oral dosage; Reduction of serum TNF levels ([5]; 100 mg/kg, FIG. 3): reduction of serum TNF levels; Survival rate of animals with endotoxic shock ([5]; FIG. 4, control group 30%): 100%
CSc1ccc(-c2nc3n(c2-c2ccnc(C)c2)CCC3)cc1 [Compound 5, 2-(4-methylthiophenyl)-3-(4-(2-methyl)pyridyl)-6,7-dihydro-[5H]-pyrrolo-[1,2-a-]-imidazole]	2.7	59	7	inhibited in vivo TNF levels	protected the animals from endotoxic induced shock	–
Fc1ccc(-c2nc3n(c2-c2ccncc2)CCS3)cc1 [5-(4-pyridyl)-6(4-fluorophenyl)-2,3-dihydroimidazo(2,1-b)thiazole]	–	–	–	–	–	Inhibition of IL-1 production by LPS-stimulated human monocytes [7]: potent inhibitor of IL-1 production; Inhibition of 5-lipoxygenase-mediated arachidonate metabolism [8]: inhibits; Inhibition of cyclooxygenase-mediated arachidonate metabolism [9]: inhibits; Effects on the edematous and cellular component of arachidonic acid-induced inflammation [10]: inhibitory effects
CCSc1ccc(-c2nc3n(c2-c2ccncc2)CCC3)cc1 [Compound 3]	2	56	–	–	–	–
O=S1(=O)CCn2c1nc(-c1ccc(F)cc1)c2-c1ccncc1 [Compound J, 6-(4-Fluorophenyl)-5-(4-pyridyl)-2,3-dihydroimidazo[2,1-b]thiazole-1,1-dioxide]	–	–	9	inhibited in vivo TNF levels	protected the animals from endotoxic induced shock	–
Cc1cc(-c2c(-c3ccc([S+](C)[O-])cc3)nc3n2CCC3)ccn1 (stereo not drawn) [Compound 6, 2-(4-methylsulfinylphenyl)-3-(4-(2-methyl)-pyridyl)-6,7-dihydro-[5H]-pyrrolo-[1,2-a]-imidazole]	> 10	59	–	–	–	–
CSc1ccc(-c2nc3n(c2-c2ccncc2)CCC3)cc1 [Compound 1, 2-(4-methylthiophenyl)-3-(4-pyridyl)-6,7-dihydro-[5H]-pyrrolo-[1,2-a-]-imidazole]	2	56	1	–	–	–
CC[S+]([O-])c1ccc(-c2nc3n(c2-c2ccncc2)CCC3)cc1 (stereo not drawn) [Compound 4]	> 10	41	7	inhibited in vivo TNF levels	protected the animals from endotoxic induced shock	–
CC(Cc1ccc(O)c(O)c1)C(C)Cc1ccc(O)c(O)c1 (stereo not drawn) [nordihydroguaiaretic acid]	–	–	–	–	–	Inhibition of IL-1 production by LPS-stimulated human monocytes [7]: with the exception of nordihydroguaiaretic acid, were inactive
